Measured values: PMC8532962 (Antibiotics, 2021)
Converted amounts (≈) assume the structure as drawn. Peptide text beside a SMILES is read from it.

How the values were obtained:
[1] = system: Aspergillus nidulans FGSC A4; experiment: microbe, parasite or virus in culture; details: FGSCA4, 24 h, read-out: MIC An
Candida albicans SC5314 [2] = experiment: microbe, parasite or virus in culture; details: SC5314, 24 h, read-out: MIC Ca
[3] = system: Saccharomyces cerevisiae S288C; experiment: microbe, parasite or virus in culture; details: 24 h, read-out: MIC Sc
[4] = system: Histoplasma capsulatum G217B; experiment: microbe, parasite or virus in culture; details: 96 h, read-out: MIC Hc
[5] = system: Schizosaccharomyces pombe 972h-; experiment: microbe, parasite or virus in culture; details: read-out: MIC Sp
Candida albicans SC5314 [6] = details: SC5314, 24 h
[7] = system: Aspergillus nidulans FGSC A4; details: 24 h
[8] = system: Histoplasma capsulatum G217B; details: 96 h
[9] = system: Saccharomyces cerevisiae S288C; details: 24 h
tested bacteria = assay type: cell-based
[10] = system: Schizosaccharomyces pombe 972h-
human erythrocytes [11] = details: cited from earlier work
Method: For EMP-ER, Konno reports 100% hemolysis for a concentration of 0.5 μg/mL and about 50% for 0.18 μg/mL [33].

B. subtilis = experiment: Antibacterial MIC, microbroth dilution; assay type: cell-based, Bacillus subtilis JH642; details: B. subtilis JH642; CLSI microbroth dilution, cation-adjusted Mueller-Hinton broth, 37 °C, OD600 every 15 min for 20 h, biological triplicate
Method: (§1) The antibacterial activity of the natural peptides and analogs was determined using the standard microbroth dilution method for determining minimal inhibitory concentration (MIC). […] The analog EMP-ER-D2K2 is the only analog that has some, but low, activity against B. subtilis with an MIC of 200 μg/mL.
(§2) Escherichia coli ATCC 25922 was obtained from ATCC and Pseudomonas aeruginosa ATCC 27853 was obtained from Carolina Biologicals. Staphylococcus aureus Newman was the S. aureus strain and the B. subtilis strain was JH642 (trpC2, pheA1).
(§3) Bacteria were grown on LB-agar plates (Fisher, Waltham, MA, USA) overnight at 37 °C, then stored at 4 °C until use. Four colonies were inoculated from the plate into 5 mL cation-adjusted Mueller-Hinton medium (Sigma) and grown to approximately OD600 = 1–2 at 37 °C in a shaking incubator at 250 rpm in preparation for antimicrobial activity testing. MICs were determined in cation-adjusted Mueller-Hinton broth using the microbroth dilution method from the Clinical and Laboratory Standards Institute. Growth was monitored by determining the optical density at 600 nm using a BioTek Synergy HTX multi-mode 96-well plate reader set to incubate at 37 °C and record every 15 min for 20 h. Each assay was performed in biological triplicate.

E. coli = experiment: Antibacterial MIC, microbroth dilution; assay type: cell-based, Escherichia coli ATCC 25922; details: E. coli ATCC 25922; CLSI microbroth dilution, cation-adjusted Mueller-Hinton broth, 37 °C, OD600 every 15 min for 20 h, biological triplicate
Method: as §1, §2, §3

human erythrocytes [12] = experiment: Hemolytic activity; assay type: cell-based; details: 1% human erythrocytes in PBS, 37 °C, 1 h, hemoglobin at 416 nm, 100% = 1% TritonX-100, biological triplicate
Method: Type O+ fresh human blood was purchased from Tennessee Blood Services Corp. (Memphis, TN, USA) in 10% citrate phosphate dextrose 10X phosphate saline solution (PBS) and EDTA (K2). Upon receiving the blood, it was washed using three volumes of 1X PBS + 5 mM glucose. The suspension was centrifuged at 1000× g for 10 min at 4 °C and the supernatant removed. The process was repeated two more times. The sedimented cells were resuspended in the same volume of 1X PBS + 5 mM glucose and stored at 4 °C until use.
[…] The cell suspensions were incubated at 37 °C for 1 h. The unlysed erythrocytes were removed by centrifugation (16,000× g) and the released hemoglobin was determined spectrophotometrically at 416 nm using a NanoDrop spectrophotometer (Thermo Fisher Scientific, Waltham, MA, USA). The control for no release of hemoglobin was a sample of 1% erythrocytes incubated in PBS without peptide. The control for 100% release of hemoglobin was a sample of 1% erythrocyte incubated in PBS with 1% TritonX-100. Each assay was performed in biological triplicate.

P. aeruginosa = experiment: Antibacterial MIC, microbroth dilution; assay type: cell-based, Pseudomonas aeruginosa ATCC 27853; details: P. aeruginosa ATCC 27853; CLSI microbroth dilution, cation-adjusted Mueller-Hinton broth, 37 °C, OD600 every 15 min for 20 h, biological triplicate
Method: as §1, §2, §3

S. aureus = experiment: Antibacterial MIC, microbroth dilution; assay type: cell-based; details: Staphylococcus aureus Newman; CLSI microbroth dilution, cation-adjusted Mueller-Hinton broth, 37 °C, OD600 every 15 min for 20 h, biological triplicate
Method: as §1, §2, §3

SMILES | MIC [1] [µg/mL] | MIC (Candida albicans SC5314 [2]) [µg/mL] | MIC [3] [µg/mL] | MIC [4] [µg/mL] | MIC [5] [µg/mL] | MIC Ca (Candida albicans SC5314 [6]) [µg/mL] | MIC An [7] [µg/mL] | MIC Hc [8] [µg/mL] | MIC Sc [9] [µg/mL] | antibacterial activity (tested bacteria) | MIC Sp [10] [µg/mL] | hemolysis (release) (human erythrocytes [11]; at concentrations of 0.5 μg/m) [%] | hemolysis potency relative to mastoparan (human erythrocytes [11]) | MIC B. subtilis (B. subtilis) [µg/mL] | MIC E. coli (E. coli) [µg/mL] | hemolysis (human erythrocytes [12]) [%] | MIC P. aeruginosa (P. aeruginosa) [µg/mL] | MIC S. aureus (S. aureus) [µg/mL]
C[C@@H]1[C@H](O)[C@@H](C)/C=C/C=C/C=C/C=C/C=C/C=C/C=C/[C@H](O[C@@H]2O[C@H](C)[C@@H](O)[C@H](N)[C@@H]2O)C[C@@H]2O[C@](O)(C[C@@H](O)C[C@@H](O)[C@H](O)CC[C@@H](O)C[C@@H](O)CC(=O)O[C@H]1C)C[C@H](O)[C@H]2C(=O)O [Amphotericin B] | > 16 | 0.5 (≈ 0.541 µM) | 1 (≈ 1.08 µM) | 0.5 (≈ 0.541 µM) | 0.25 (≈ 0.271 µM) | – | – | – | – | – | – | – | – | – | – | – | – | –
CC[C@H](C)[C@H](N)C(=O)N[C@@H](CC(N)=O)C(=O)N[C@@H](CCCCN)C(=O)N[C@@H](CC(C)C)C(=O)N[C@H](C(=O)N[C@H](C(=O)N[C@@H](CCCCN)C(=O)N[C@H](C(=O)NCC(=O)N[C@@H](CCCCN)C(=O)N[C@H](C(=O)N[C@H](C(=O)N[C@@H](CO)C(=O)N[C@@H](CC(C)C)C(N)=O)C(C)C)[C@@H](C)CC)C(C)C)[C@@H](C)CC)C(C)C [EMP-AF-KV] (H-INKLVIKVGKIVSL-NH2) | – | – | – | – | – | >256 | >256 | >256 | >256 | no antibacterial activity | >256 | – | – | – | – | – | – | –
CC[C@H](C)[C@H](N)C(=O)N[C@@H](CC(N)=O)C(=O)N[C@@H](CC(C)C)C(=O)N[C@@H](CC(C)C)C(=O)N[C@@H](CCCCN)C(=O)N[C@H](C(=O)N[C@@H](C)C(=O)N[C@@H](CCCCN)C(=O)NCC(=O)N[C@H](C(=O)N[C@H](C(=O)N[C@@H](CCCCN)C(=O)N[C@@H](CO)C(=O)N[C@@H](CC(C)C)C(N)=O)[C@@H](C)CC)[C@@H](C)CC)[C@@H](C)CC [EMP-AF-OR] (H-INLLKIAKGIIKSL-NH2) | – | – | – | – | – | >256 | >256 | 128 (≈ 84 µM) | >256 | – | >256 | 75 | one-third | 10 | 25 | 100 | 200 | 25
